# In patent publication US10165776B2, “Substituted pyrazolylpyrazole derivative and use of same as herbicide” (KYOYU AGRI CO., LTD., priority 2015, dated 2019):
# System: Chenopodium album
# Experiment: Farming soil treatment test
# Type: in vivo
# Details: 5 g a.i./10 a; soil surface spray prior to weed growth; 30 days at 30° C.
# Description: (§1) Field soil was filled into a 1/6000 are pot followed by seeding with Digitaria ciliaris, Chenopodium album and Amaranthus retroflexus and covering with soil. Wettable powders of compounds of formula (I) shown in Table 1 prepared in compliance with the preparation examples were diluted with water to the prescribed amount of chemical and uniformly sprayed onto each soil surface layer using 100 liters of sprayed water per 10 are prior to weed growth following seeding. After treating for 30 days in a glass greenhouse at an average atmospheric temperature of 30° C., the herbicidal efficacy thereof was investigated. Evaluation of herbicidal efficacy was carried out in the same manner as the above-mentioned Test Example 1.
row,Structure (SMILES),"herbicidal efficacy, Chenopodium album"
1,N#Cc1cnn(-c2nn3c(c2Cl)CCCC3)c1NC(=O)CCc1ccccc1 [Compound 19],10 (10: 100%)

# Same assay, conditions: 10 g a.i./10 a; soil surface spray prior to weed growth; 30 days at 30° C.
row,Structure (SMILES),"herbicidal efficacy, Chenopodium album"
1,N#Cc1cnn(-c2nn3c(c2Cl)CCCC3)c1NC(=O)CCc1ccccc1 [Compound 19],10 (10: 100%)

# System: Amaranthus retroflexus
# Experiment: Farming soil treatment test
# Type: in vivo
# Details: 5 g a.i./10 a; soil surface spray prior to weed growth; 30 days at 30° C.
# Description: as §1
row,Structure (SMILES),"herbicidal efficacy, Amaranthus retroflexus"
1,N#Cc1cnn(-c2nn3c(c2Cl)CCCC3)c1NC(=O)CCc1ccccc1 [Compound 19],10 (10: 100%)

# Same assay, conditions: 10 g a.i./10 a; soil surface spray prior to weed growth; 30 days at 30° C.
row,Structure (SMILES),"herbicidal efficacy, Amaranthus retroflexus"
1,N#Cc1cnn(-c2nn3c(c2Cl)CCCC3)c1NC(=O)CCc1ccccc1 [Compound 19],10 (10: 100%)

# System: Digitaria ciliaris
# Experiment: Farming soil treatment test
# Type: in vivo
# Details: 5 g a.i./10 a; soil surface spray prior to weed growth; 30 days at 30° C.
# Description: as §1
row,Structure (SMILES),"herbicidal efficacy, Digitaria ciliaris"
1,N#Cc1cnn(-c2nn3c(c2Cl)CCCC3)c1NC(=O)CCc1ccccc1 [Compound 19],10 (10: 100%)

# Same assay, conditions: 10 g a.i./10 a; soil surface spray prior to weed growth; 30 days at 30° C.
row,Structure (SMILES),"herbicidal efficacy, Digitaria ciliaris"
1,N#Cc1cnn(-c2nn3c(c2Cl)CCCC3)c1NC(=O)CCc1ccccc1 [Compound 19],10 (10: 100%)

# System: Oryza sativa
# Experiment: Paddy herbicidal activity test, phytotoxicity to transplanted rice
# Type: in vivo
# Details: 1 g a.i./10 a; rice transplanted at 2.0 leaf stage; 30 days at 30° C.
# Description: (§2) Rice paddy soil was filled into a 1/10000 are pot followed by the addition of suitable amounts of water and chemical fertilizer, kneading, seeding with Echinochloa crus-galli, Monochoria vaginalis and Scirpus juncoides and maintaining in an irrigated state at a water depth of 3 cm. Wettable powders of Target Compound (I) shown in Table 1 prepared in compliance with the preparation examples were diluted with a suitable amount of water, rice plants in the 2.0 leaf stage were transplanted during 3.5 leaf stage of Echinochloa crus-galli, and treated by dropping in chemical in the prescribed amount per 10 are using a pipette. After treating for 30 days in a glass greenhouse at an average atmospheric temperature of 30° C., the herbicidal efficacy thereof was investigated. Evaluation of herbicidal efficacy was carried out by comparing growth inhibition rate (%) with an untreated group, while evaluation of phytotoxicity was carried out by comparing growth inhibition rate (%) with the state of a complete eradication group, and were evaluated at 11 levels indicated below.
row,Structure (SMILES),"phytotoxicity, Oryza sativa"
1,N#Cc1cnn(-c2nn3c(c2Cl)CCCC3)c1NC(=O)CCc1ccccc1 [Compound 19],0 (0 (exponent): 0% to less than 10% (growth inhibition rate))

# Same assay, conditions: 5 g a.i./10 a; rice transplanted at 2.0 leaf stage; 30 days at 30° C.
row,Structure (SMILES),"phytotoxicity, Oryza sativa"
1,N#Cc1cnn(-c2nn3c(c2Cl)CCCC3)c1NC(=O)CCc1ccccc1 [Compound 19],1 (1: 10% to less than 20%)

# System: Monochoria vaginalis
# Experiment: Paddy herbicidal activity test
# Type: in vivo
# Details: 1 g a.i./10 a; irrigated pot, treated at 3.5 leaf stage of Echinochloa crus-galli; 30 days at 30° C.
# Description: as §2
row,Structure (SMILES),"herbicidal efficacy, Monochoria vaginalis"
1,N#Cc1cnn(-c2nn3c(c2Cl)CCCC3)c1NC(=O)CCc1ccccc1 [Compound 19],10 (10: 100%)

# Same assay, conditions: 5 g a.i./10 a; irrigated pot, treated at 3.5 leaf stage of Echinochloa crus-galli; 30 days at 30° C.
row,Structure (SMILES),"herbicidal efficacy, Monochoria vaginalis"
1,N#Cc1cnn(-c2nn3c(c2Cl)CCCC3)c1NC(=O)CCc1ccccc1 [Compound 19],10 (10: 100%)

# System: Echinochloa crus-galli
# Experiment: Paddy herbicidal activity test
# Type: in vivo
# Details: 1 g a.i./10 a; irrigated pot, treated at 3.5 leaf stage of Echinochloa crus-galli; 30 days at 30° C.
# Description: as §2
row,Structure (SMILES),"herbicidal efficacy, Echinochloa crus-galli"
1,N#Cc1cnn(-c2nn3c(c2Cl)CCCC3)c1NC(=O)CCc1ccccc1 [Compound 19],9 (9: 90% to less than 100%)

# Same assay, conditions: 5 g a.i./10 a; irrigated pot, treated at 3.5 leaf stage of Echinochloa crus-galli; 30 days at 30° C.
row,Structure (SMILES),"herbicidal efficacy, Echinochloa crus-galli"
1,N#Cc1cnn(-c2nn3c(c2Cl)CCCC3)c1NC(=O)CCc1ccccc1 [Compound 19],10 (10: 100%)

# System: Scirpus juncoides
# Experiment: Paddy herbicidal activity test
# Type: in vivo
# Details: 1 g a.i./10 a; irrigated pot, treated at 3.5 leaf stage of Echinochloa crus-galli; 30 days at 30° C.
# Description: as §2
row,Structure (SMILES),"herbicidal efficacy, Scirpus juncoides"
1,N#Cc1cnn(-c2nn3c(c2Cl)CCCC3)c1NC(=O)CCc1ccccc1 [Compound 19],10 (10: 100%)

# Same assay, conditions: 5 g a.i./10 a; irrigated pot, treated at 3.5 leaf stage of Echinochloa crus-galli; 30 days at 30° C.
row,Structure (SMILES),"herbicidal efficacy, Scirpus juncoides"
1,N#Cc1cnn(-c2nn3c(c2Cl)CCCC3)c1NC(=O)CCc1ccccc1 [Compound 19],10 (10: 100%)

# System: Galinsoga parviflora
# Experiment: Weed foliar treatment test (Test 4, 4.0 to 5.0 leaf stage)
# Type: in vivo
# Details: 10 g a.i./10 a; foliar spray at 4.0 to 5.0 leaf stage of Digitaria ciliaris (plant height 10 cm to 15 cm); 20 days at 25° C.
# Description: (§3) Field soil was filled into a 1/4500 are pot followed by seeding with Digitaria ciliaris and Galinsoga parviflora, covering with soil and cultivating in a glass greenhouse at an average atmospheric temperature of 25° C. Wettable powders of Target Compound (I) shown in Table 1 prepared in compliance with the preparation examples were diluted with water to the prescribed amount of chemical and uniformly sprayed onto the weeds using 100 liters of sprayed water per 10 are when Digitaria ciliaris had grown to the 4.0 to 5.0 leaf stage (plant height: 10 cm to 15 cm). After treating for 20 days in a glass greenhouse at an average atmospheric temperature of 25° C., the herbicidal efficacy thereof was investigated. Evaluation of herbicidal efficacy was carried out in the same manner as the above-mentioned Test Example 1.
row,Structure (SMILES),"herbicidal efficacy, Galinsoga parviflora"
1,N#Cc1cnn(-c2nn3c(c2Cl)CCCC3)c1NC(=O)CCc1ccccc1 [Compound 19],10 (10: 100%)

# System: Digitaria ciliaris
# Experiment: as above
# Type: in vivo
# Details: 10 g a.i./10 a; foliar spray at 4.0 to 5.0 leaf stage of Digitaria ciliaris (plant height 10 cm to 15 cm); 20 days at 25° C.
# Description: as §3
row,Structure (SMILES),"herbicidal efficacy, Digitaria ciliaris"
1,N#Cc1cnn(-c2nn3c(c2Cl)CCCC3)c1NC(=O)CCc1ccccc1 [Compound 19],10 (10: 100%)

# System: Chenopodium album
# Experiment: Weed foliar treatment test (Test 3, 1.0 to 2.0 leaf stage)
# Type: in vivo
# Details: 5 g a.i./10 a; foliar spray at 1.0 to 2.0 leaf stage of Digitaria ciliaris; 3 weeks at 25° C.
# Description: (§4) Soil was filled into a 1/6000 are pot followed by seeding with Digitaria ciliaris, Chenopodium album and Amaranthus retroflexus, covering with soil, and cultivating in a glass greenhouse at an average atmospheric temperature of 25° C. Wettable powders of Target Compound (I) shown in Table 1 prepared in compliance with the preparation examples were diluted with water to the prescribed amount of chemical and uniformly sprayed onto the weeds using 150 liters of sprayed water per 10 are when Digitaria ciliaris had grown to the 1.0 to 2.0 leaf stage. After treating for 3 weeks in a glass greenhouse at an average atmospheric temperature of 25° C., the herbicidal efficacy thereof was investigated. Evaluation of herbicidal efficacy was carried out in the same manner as the above-mentioned Test Example 1.
row,Structure (SMILES),"herbicidal efficacy, Chenopodium album"
1,N#Cc1cnn(-c2nn3c(c2Cl)CCCC3)c1NC(=O)CCc1ccccc1 [Compound 19],10 (10: 100%)

# Same assay, conditions: 10 g a.i./10 a; foliar spray at 1.0 to 2.0 leaf stage of Digitaria ciliaris; 3 weeks at 25° C.
row,Structure (SMILES),"herbicidal efficacy, Chenopodium album"
1,N#Cc1cnn(-c2nn3c(c2Cl)CCCC3)c1NC(=O)CCc1ccccc1 [Compound 19],10 (10: 100%)

# System: Amaranthus retroflexus
# Experiment: as above
# Type: in vivo
# Details: 5 g a.i./10 a; foliar spray at 1.0 to 2.0 leaf stage of Digitaria ciliaris; 3 weeks at 25° C.
# Description: as §4
row,Structure (SMILES),"herbicidal efficacy, Amaranthus retroflexus"
1,N#Cc1cnn(-c2nn3c(c2Cl)CCCC3)c1NC(=O)CCc1ccccc1 [Compound 19],10 (10: 100%)

# Same assay, conditions: 10 g a.i./10 a; foliar spray at 1.0 to 2.0 leaf stage of Digitaria ciliaris; 3 weeks at 25° C.
row,Structure (SMILES),"herbicidal efficacy, Amaranthus retroflexus"
1,N#Cc1cnn(-c2nn3c(c2Cl)CCCC3)c1NC(=O)CCc1ccccc1 [Compound 19],10 (10: 100%)

# System: Digitaria ciliaris
# Experiment: as above
# Type: in vivo
# Details: 5 g a.i./10 a; foliar spray at 1.0 to 2.0 leaf stage of Digitaria ciliaris; 3 weeks at 25° C.
# Description: as §4
row,Structure (SMILES),"herbicidal efficacy, Digitaria ciliaris"
1,N#Cc1cnn(-c2nn3c(c2Cl)CCCC3)c1NC(=O)CCc1ccccc1 [Compound 19],10 (10: 100%)

# Same assay, conditions: 10 g a.i./10 a; foliar spray at 1.0 to 2.0 leaf stage of Digitaria ciliaris; 3 weeks at 25° C.
row,Structure (SMILES),"herbicidal efficacy, Digitaria ciliaris"
1,N#Cc1cnn(-c2nn3c(c2Cl)CCCC3)c1NC(=O)CCc1ccccc1 [Compound 19],10 (10: 100%)
